Here are results for six compounds from patent US8309685B2 (Celgene Avilomics Research, Inc., priority 2007, dated 2012).

As usually defined, the Ki is the dissociation constant of the complex between target and ligand, obtained from inhibition or displacement. Usually IC90 stands for the concentration needed for an effect of 90%.

The target of series [1] is HCV protease mutant A156T (Hepatitis C virus genotype 1b, UniProt Q9WMX2, A1182T). The settings on record: biochemical assays, read-out: Comparative Ki Values, A156T; cited from earlier work.
Series [2] has as its target HCV protease mutant D168A (Hepatitis C virus genotype 1b, UniProt Q9WMX2, D1194A). Particulars: biochemical assays, cited from earlier work; for IC50: literature, read-out: Comparative IC50 Values, D168A; for Ki: read-out: Comparative Ki Values, D168A.
For series [3], the target named is T1, wild type HCV NS3/4A 1b protease enzyme (Hepatitis C virus genotype 1b, UniProt P26663).
T1 construct: 10× stocks of NS3/4A protease enzyme from Bioenza (Mountain View, Calif.); purchased Bioenza (Mountain View, Calif.)
The series is described as follows: biochemical. It counts as biochemical. Particulars: read-out: Inhibition, WT; WT enzyme, FRET assay.

For series [4], the target named is T2, A156T mutant of the HCV NS3/4A 1b protease enzyme (Hepatitis C virus genotype 1b, UniProt P26663, A1182T).
T2 construct: 10× stocks of NS3/4A protease enzyme from Bioenza (Mountain View, Calif.); purchased Bioenza (Mountain View, Calif.)
Briefly: HCV Protease FRET Assay (IC50), A156T mutant. The series is classed as biochemical. Particulars: read-out: Inhibition, HCV A156T; A156T enzyme, FRET assay.

Series [5] has as its target T3, D168A mutant of the HCV NS3/4A 1b protease enzyme (Hepatitis C virus genotype 1b, UniProt P26663, D1194A).
T3 construct: 10× stocks of NS3/4A protease enzyme from Bioenza (Mountain View, Calif.); purchased Bioenza (Mountain View, Calif.)
Briefly: HCV Protease FRET Assay (IC50), D168A mutant. It counts as biochemical. Particulars: read-out: Inhibition, HCV D168A; D168A enzyme, FRET assay.

Series [6] concerns the target HCV NS3/4A protease (UniProt Q9WMX2). Briefly: Method B: HCV Protease Assay using FRET Methodology. The arrangement: species or system Hepatitis C virus. Particulars: read-out: Inhibition, Biochemical; Enzyme/Assay: Biochemical. An excerpt:
Method B: HCV Protease Assay using FRET Methodology
A quantitative, fluorescence resonance energy transfer (FRET)-based methodology was employed to identify HCV NS3/4A protease inhibitors. The assay employed a synthetic FRET peptide, derived from the HCV NS5A/5B cleavage site, with the HCV protease to evaluate the activity of compounds against the protease by monitoring the cleavage activity of the complex. A synthetic peptide which encompasses the NS5A-5B junction (NH2-EDVVCCSMSYK-COOH) was labeled with Dabcyl and Edans at N- and C-termini, respectively (Invitrogen, Carlsbad, Calif.). Fluorescence measurement was used to estimate the IC50 value of the test compound. […] Upon cleavage of the FRET peptide by HCV NS3/4A proteinase complex (100 ng/mL), the fluorescence is recovered and can be continuously monitored at excitation/emission=340/490 nm.

The test system of series [7] is HCV RNA replicon in cell line ET (luc-ubi-neo/ET), human Huh7 hepatoma. The series is described as follows: Method A: HCV RNA replicon antiviral assay (luciferase, ET cell line). The series is classed as cell-based, Hepatitis C virus. The settings on record: Hepatitis C virus, Huh-7. An outline of the steps: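 ET replicon cells (Huh7 carrying luciferase-reporter HCV replicon) plated at 5×10^3 cells/well and exposed 72 hr to six 3-fold drug concentrations in DMEM/5% FBS. Replicon luciferase gave EC50/EC90; CytoTox-1 cell counts gave IC50 (viability); […]. Interferon alpha-2b served as positive control.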

For series [8], the system named is cell line ET (luc-ubi-neo/ET), human Huh7 hepatoma cell line. Briefly: Method A: cytotoxicity in ET replicon cells (CytoTox-1). The series is classed as cell-based. Particulars: concentration decreasing cell viability by 50%, 72 hr. An outline of the steps: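 ET cells (Huh7 carrying luciferase HCV replicon), 5×10^3 cells/well, given six 3-fold compound concentrations in DMEM with 5% FBS. After 72 hr, while subconfluent, cell number was measured with CytoTox-1 reagent. Interferon alpha-2b served as positive control.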

In series [9] the target is T4, HCV R155K (NS3/4A 1b protease) (Hepatitis C virus genotype 1b, UniProt P26663, R1181K).
T4 construct: 10× stocks of NS3/4A protease enzyme from Bioenza (Mountain View, Calif.); purchased Bioenza (Mountain View, Calif.)
Briefly: HCV Protease FRET Assay (IC50), R155K mutant. The series is classed as biochemical. The settings on record: R155K enzyme, read-out: Inhibition, HCV R155K. On the procedure:
HCV Protease FRET Assay for Wild Type and Mutated NS3/4A 1b Enzymes (IC50)
The protocol is a modified FRET-based assay (v—02) from In Vitro Resistance Studies of HCV Serine Protease Inhibitors, 2004, JBC, vol. 279, No. 17, pp 17508-17514.
10× stocks of NS3/4A protease enzyme from Bioenza (Mountain View, Calif.) and 1.13× 5-FAM/QXL™ 520 FRET peptide substrate from Anaspec (San Jose, Calif.) were prepared in 50 mM HEPES, pH 7.8, 100 mM NaCl, 5 mM DTT and 20% glycerol. 5 μL of each enzyme were pre-incubated in a Corning (#3573) 384-well, black, non-treated microtiter plate (Corning, N.Y.) for 30 min at 25° C. with a 0.5 μL volume of 50% DMSO and serially diluted compounds prepared in 50% DMSO. Protease reactions were started with the addition of 45 μL of the FRET substrate and monitored for 120 minutes at λex487/λem514 through Quad^4 monochromoters in a Synergy^4 plate reader from BioTek (Winooski, Vt.). At the conclusion of each assay, progress curves from each well were examined for linear reaction kinetics and fit statistics (R^2, absolute sum of squares). Initial velocity (0 minutes to 30+ minutes) from each reaction was determined from the slope of a plot of relative fluorescence units vs time (minutes) and then plotted against inhibitor concentration to estimate IC50 from log[Inhibitor] vs Response, Variable Slope model in GraphPad Prism from GraphPad Software (San Diego, Calif.).
The compound numbers correspond to the compound numbers in Table 3. […] ;

The target of series [10] is T1, wild type HCV NS3/4A 1b protease enzyme. Briefly: HCV Protease FRET Assay (IC50_APP), wild type. It counts as biochemical. Particulars: read-out: IC50_APP, WT; apparent IC50, wild type NS3/4A 1b.
Series [11] addresses T2, A156T mutant of the HCV NS3/4A 1b protease enzyme. Briefly: HCV Protease FRET Assay (IC50_APP), A156T mutant. The series is classed as biochemical. Particulars: apparent IC50, A156T mutant; read-out: IC50_APP, HCV A156T.
Series [12] addresses T3, D168A mutant of the HCV NS3/4A 1b protease enzyme. The series is described as follows: HCV Protease FRET Assay (IC50_APP), D168A mutant. Particulars: apparent IC50, D168A mutant; read-out: IC50_APP, HCV D168A. The series is classed as biochemical.
The target in series [13] is T5, R155K mutant of the HCV NS3/4A 1b protease enzyme (Hepatitis C virus genotype 1b, UniProt P26663, R1181K).
T5 construct: 10× stocks of NS3/4A protease enzyme from Bioenza (Mountain View, Calif.); purchased Bioenza (Mountain View, Calif.)
The series is described as follows: HCV Protease FRET Assay (IC50_APP), R155K mutant. It counts as biochemical. Particulars: apparent IC50, R155K mutant; read-out: IC50_APP, HCV R155K.

Series [14] has as its target T6, NS3 protease self-cleavage in Huh-7-Luc-Neo-ET wild-type replicon cells (Hepatitis C virus genotype 1b, UniProt Q9WMX2, E1202G/T1280I).
T6 construct: host or cells: Huh-7-Luc-Neo-ET (human Huh7 hepatoma cells carrying the replicon)
The series is described as follows: Inhibition of protease self cleavage after compound removal, wild-type replicon cells. The series is classed as cell-based. Particulars: 16 hours incubation, in as little as 4 hours after removal. As for the experimental part:
Inhibition of Protease Self Cleavage
Huh-7-Luc-Neo-ET cells were plated in Replicon Assay Medium (RPMI supplemented with 5% FBS, 1× non-essential amino acids and pen/strep) at a density of 1×10^5 cells/well in 12 well plates. Eight hours later the media was removed and replaced with 1 ml media containing test compound (5 wells per compound) and 0.02% DMSO and the cells were returned to the incubator overnight. Sixteen hours later 1 well from each compound and 1 untreated well were washed with PBS, then lysed and scraped into 30 ul of Cell Extraction Buffer (Biosource, Camarillo, Calif.) plus Complete Protease Inhibitor (Roche, Indianapolis, Ind.). The remaining wells were rinsed 2× with PBS then fed with Replicon Media and returned to the incubator. […]
Cell lysates were separated by SDS-Page (4-20%) and transferred to Immobilon-P PVDF membrane (Millipore Corporation, Mass.) and blotted with polyclonal anti NS3 antibody (Bioenza, Calif.). Blots were scanned on an Odyssey infrared scanner from Licor and the FL band and cleavage products were quantified separately using the Licor software provided with the scanner. The cleavage product was calculated as a percentage of the total NS3 in each sample and then normalized to the DMSO control so that the DMSO control reflects 100% activity.
For orientation: A replicon is a self-replicating genome or part of one, used to study replication in cells.

[15] abbreviates: assay described in Example 22, read-out: Replicon (IC50).

Read-outs that look alike come from different tables or passages of the source.

`COc1ccc2c(O[C@@H]3C[C@H]4C(=O)N[C@]5(C(=O)O)C[C@H]5/C=C\CCCCC[C@H](NC(=O)OC5CCCC5)C(=O)N4C3)cc(-c3csc(NC(C)C)n3)nc2c1` [BILN 2061]: the Ki in series [1] was above 1200 nM. For the same compound, in [2], the IC50 is 1860 nM and the inhibition constant (Ki) was above 1200 nM.

Regarding `C=C[C@@H]1C[C@]1(NC(=O)[C@@H]1C[C@@H](Oc2cc(-c3ccccc3)nc3cc(OC)ccc23)CN1C(=O)[C@H](CNC(=O)/C=C/C)NC(=O)OC(C)(C)C)C(=O)NS(=O)(=O)c1ccccc1` [Compound I-2, N-[(1,1-dimethylethoxy)carbonyl]-3-[(2-butenoyl)amino]-L-alanyl-(4R)-4-[(7-methoxy-2-phenyl-4-quinolinyl)oxy]-L-prolyl-1-amino-2-ethenyl-N-(phenylsulfonyl)-(1R,2S)-cyclopropanecarboxamide], the IC50 in [3] is below 10 nM; in series [4] it was 10 to 100 nM; in series [5], 1000 to 10000 nM; in series [6], 100 to 1000 nM; in [7] (Replicon, assay of Example 22, 72 hr, read-out: Inhibition, Replicon), 100 to 1000 nM. Further, the “Inhibition, Cytotoxicity” value in series [8] is on record as “E (IC50≧10,000 nM)”.

Take `C=CC(=O)NC[C@H](NC(=O)OC(C)(C)C)C(=O)N1C[C@H](Oc2nccc3ccc(Br)cc23)C[C@H]1C(=O)N[C@]1(C(=O)NS(=O)(=O)C2CC2)C[C@H]1C=C` [Compound I-73, tert-butyl-(S)-3-acrylamido-1-((2S,4R)-4-(7-bromoisoquinolin-1-yloxy)-2-((1R,2S)-1-(cyclopropylsulfonylcarbamoyl)-2-vinylcyclopropylcarbamoyl)pyrrolidin-1-yl)-1-oxopropan-2-ylcarbamate]: the IC50 in series [9] is below 10 nM; in series [7] (setting [15]), 10 to 100 nM; in [10], below 10 nM; in [11], 10 to 100 nM; in [12], 100 to 1000 nM; in series [13] it was 10 to 100 nM. Further, in series [7] (assay described in Example 22), the IC90 lay within 100 to 1000 nM.

In the case of `C=CC(=O)N[C@H](C)C(=O)N1C[C@H](Oc2nccc3ccc(Br)cc23)C[C@H]1C(=O)N[C@]1(C(=O)NS(=O)(=O)C2CC2)C[C@H]1C=C` [Compound I-74, (2S,4R)-1-((R)-2-acrylamidopropanoyl)-4-(7-bromoisoquinolin-1-yloxy)-N-((1R,2S)-1-(cyclopropylsulfonylcarbamoyl)-2-vinylcyclopropyl)pyrrolidine-2-carboxamide], the IC50 in series [9] is below 10 nM; in series [7] (setting [15]), 10 to 100 nM; in series [10] it was below 10 nM; in [11], 10 to 100 nM; in series [12], 100 to 1000 nM; in series [13] it was 10 to 100 nM. The concentration for an effect of 90% (IC90) in [7] (assay described in Example 22) lay in the range of 10 to 100 nM.

With `C=C[C@@H]1C[C@]1(NC(=O)[C@@H]1C[C@@H](Oc2nccc3ccc(Br)cc23)CN1C(=O)[C@H](CCC(=O)C=C(C)C)NC(=O)OC(C)(C)C)C(=O)NS(=O)(=O)C1CC1` [Compound I-75, tert-butyl-(S)-1-((2S,4R)-4-(7-bromoisoquinolin-1-yloxy)-2-((1R,2S)-1-(cyclopropylsulfonylcarbamoyl)-2-vinylcyclopropylcarbamoyl)pyrrolidin-1-yl)-7-methyl-1,5-dioxooct-6-en-2-ylcarbamate], the IC50 was 10 to 100 nM in [9]; below 10 nM in [7] (setting [15]); below 10 nM in series [10]; 100 to 1000 nM in series [11]; 1000 to 10000 nM in series [12]; 100 to 1000 nM in series [13]. This compound also gave a 90% effect concentration (IC90) in [7] (assay described in Example 22) of 10 to 100 nM.

`CCC[C@H](NC(=O)[C@@H]1[C@H]2CCC[C@H]2CN1C(=O)[C@@H](NC(=O)[C@@H](NC(=O)c1cnccn1)C1CCCCC1)C(C)(C)C)C(=O)C(=O)NC1CC1` [VX-950]: the “Return of NS3 self-cleavage activity after drug removal” value in series [14] was “virtually complete return of activity”. Besides, the Ki was 9900 nM in series [1] and 150 nM in series [2]. Also, the IC50 in series [2] was 193 nM.
